Experimental data as given in patent US5480905A, “Benzodioxane derivatives” (Chugai Seiyaku Kabushiki Kaisha, priority 1991, dated 1996).
Where a name gives a salt, the structure may show the parent alone.

How the values were obtained:
serotonin 1A receptor = target: T1, serotonin 1A receptor (Rattus norvegicus, UniProt P19327); experiment: Serotonin 1A receptor binding experiment (3H-8-OH-DPAT); conditions: rat cortex and hippocampal tissue; 0.5 nM 3H-8-OH-DPAT; IC50 in M; read-out: -logIC50 5-HT1A (converted)
T1 construct: the cortex and hippocampal tissue were extracted from the brain; from tissue; host or cells: brain cortex and hippocampus of 7-week-old male S.D. rats, washed membrane homogenate
T1 sequence (P19327 1-422): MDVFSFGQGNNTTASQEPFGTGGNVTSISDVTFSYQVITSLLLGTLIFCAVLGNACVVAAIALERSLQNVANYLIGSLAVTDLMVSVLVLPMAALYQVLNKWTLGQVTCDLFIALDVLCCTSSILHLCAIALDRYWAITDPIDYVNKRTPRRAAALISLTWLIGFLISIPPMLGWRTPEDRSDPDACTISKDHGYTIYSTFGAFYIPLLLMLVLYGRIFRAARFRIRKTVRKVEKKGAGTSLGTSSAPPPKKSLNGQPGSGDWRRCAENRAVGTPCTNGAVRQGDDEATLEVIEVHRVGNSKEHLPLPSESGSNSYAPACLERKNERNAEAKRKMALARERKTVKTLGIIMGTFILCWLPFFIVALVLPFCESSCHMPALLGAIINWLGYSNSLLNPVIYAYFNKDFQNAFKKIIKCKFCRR
Experimental: (§1) Affinity for intracerebral serotonin 1A and serotonin 2 receptor was checked in accordance with the method of Hall et al. (J. Neurochem., 44, 1685-1695, 1985) and the method of Leysen et al. (Mol. Pharmacol., 21, 301-314, 1982).
(§2) Stated more specifically, the cortex and hippocampal tissue were extracted from the brain of 7-wk old S.D. line male rats, mixed with 20 volumes of Tris-HCl buffer (50 mM, pH 7.7) and homogenized with a Teflon homogenizer. Thereafter, the homogenate was centrifuged at 39800×g for 20 min and the supernatant was discarded. Forty volumes of a buffer were added to the precipitate and the mixture was homogenized with a Polytron homogenizer, with the homogenate being centrifuged under the same condition as set forth above. The same procedure was repeated two more times and the final precipitate was homogenized with 40 volumes of a buffer; thereafter, the homogenate was stored at least overnight at -80° C. On the day when binding experiments were to be conducted, the homogenate was thawed at room temperature and incubated at 37° C. for 20 min to remove the endogenous serotonin.
(§3) Thereafter, centrifugation was conducted at 39800×g for 20 min and 40 volumes of a buffer were added to the precipitate, followed by homogenization. This procedure was repeated three times; to the final precipitate, a buffer was added in 65 volumes for the case of serotonin 1A receptor and in 80 volumes for the case of serotonin 2 receptor and the mixture was homogenized in preparation for the binding experiments that are described below. All procedures of experimentation except storage in a frozen state and thawing at room temperature were conducted at 4° C. or below.
A reaction solution containing 0.5 nM (final concentration) of 3H-8-hydroxy-2-(di-n-propylamino)tetralin (8-OH-DPAT), […] and 500 μl of brain homogenate in 1.0 ml (final volume) of a buffer was incubated at 25° C. for 30 min. Thereafter, the reaction solution was filtered by rapid passage through a glass filler. The filter was washed rapidly with an ice-cooled buffer (3 ml) three times, put into a scintillation vial together with a scintillation cocktail, and left to stand overnight at 4° C. On the next day, the vial was agitated well and measurements were conducted with a scintillation counter. To determine the amount of specific binding, the amount of binding in the presence of excess unlabeled serotonin (10 μM) was subtracted from the total amount of binding. As an index for the affinity of a test compound for either receptor, the concentration at which the specific binding of ^3 H-DPAT was inhibited by 50% (IC50, M) was determined using computer software EBDA/LIGAND (Biosoft).

serotonin 2 receptor = target: T2, serotonin 2 receptor (Rattus norvegicus, UniProt P14842); experiment: Serotonin 2 receptor binding experiment (3H-ketancerine); conditions: rat cortex and hippocampal tissue; 0.5 nM 3H-ketancerine; IC50 in M; read-out: -logIC50 5-HT2 (converted)
T2 construct: the cortex and hippocampal tissue were extracted from the brain; from tissue; host or cells: brain cortex and hippocampus of 7-week-old male S.D. rats, washed membrane homogenate
T2 sequence (P14842 whole entry): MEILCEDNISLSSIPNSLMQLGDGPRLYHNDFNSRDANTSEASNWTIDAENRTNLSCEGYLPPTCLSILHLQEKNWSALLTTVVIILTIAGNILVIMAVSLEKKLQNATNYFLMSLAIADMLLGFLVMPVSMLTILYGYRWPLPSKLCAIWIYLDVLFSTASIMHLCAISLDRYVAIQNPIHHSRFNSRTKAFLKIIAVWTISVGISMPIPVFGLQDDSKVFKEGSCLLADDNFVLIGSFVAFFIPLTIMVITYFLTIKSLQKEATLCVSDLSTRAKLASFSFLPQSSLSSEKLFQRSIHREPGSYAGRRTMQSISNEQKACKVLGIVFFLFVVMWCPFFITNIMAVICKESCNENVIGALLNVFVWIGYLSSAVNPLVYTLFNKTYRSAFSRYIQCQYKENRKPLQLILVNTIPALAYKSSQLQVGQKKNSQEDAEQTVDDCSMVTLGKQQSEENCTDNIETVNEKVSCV
Experimental: as §1, §2, §3
A reaction solution containing 0.5 nM (final concentration) of ^3 H-ketancerine and 500 μl of brain homogenate in 1.0 ml (final volume) of a buffer was incubated at 30° C. for 30 min. Subsequent procedures were the same as in the serotonin 1A receptor binding experiment and IC50 (M) was determined accordingly. To determine the amount of specific binding, the amount of binding in the presence of excess unlabelled methysergide ([…]) was subtracted from the total amount of binding.

## Cc1ccc(C)c2c1OCC(CNCCNC(=O)C13CC4CC(CC(C4)C1)C3)O2 (stereo not drawn) [Compound 11, N-{[2-(5,8-dimethyl-1,4-benzodioxan-2-ylmethyl)amino]ethyl}tricyclo[3,3,1^3, ^7]decane-1-carboxyamide]
Serotonin 1A receptor
  IC50: 0.00398 µM
Serotonin 2 receptor
  IC50: 0.0794 µM

## CC(=O)c1cccc2c1OC(CNCCNC(=O)C13CC4CC(CC(C4)C1)C3)CO2 (stereo not drawn) [Compound 15, N-{[2-(8-acetyl-1,4benzodioxan-2ylmethyl)amino]ethyl}tricyclo[3,3,1,1^3, ^7]decane-1-carboxyamide]
Serotonin 1A receptor
  IC50: 0.00316 µM
Serotonin 2 receptor
  IC50: 0.0631 µM

## O=C(NCCNCC1COc2c(O)cccc2O1)C12CC3CC(CC(C3)C1)C2 (stereo not drawn) [Compound 19, N-{[2-(5-hydroxy-1,4-benzodioxan-2ylmethyl)amino]ethyl)tricyclo[3,3,1,1^3, ^7]decane-1-1-carboxyamide]
Serotonin 1A receptor
  IC50: 0.00631 µM
Serotonin 2 receptor
  IC50: 1 µM

## Cc1cccc2c1OC(CNCCNC(=O)C13CC4CC(CC(C4)C1)C3)CO2 (single isomer, unassigned; (+)) [Compound 8, (+)-N-{[2-(8-methyl-1,4-benzodioxan-2ylmethyl)amino]ethyl}tricyclo[3,3,1,1^3, ^7]decane-1-carboxyamide hydrochloride]
Serotonin 1A receptor
  IC50: 0.00631 µM
Serotonin 2 receptor
  IC50: 0.0501 µM

## C=CCN(CCNC(=O)C12CC3CC(CC(C3)C1)C2)CC1COc2cccc(C)c2O1 (stereo not drawn) [Compound 9, N-{[2-(8-methyl-1,4-benzodioxan-2-ylmethyl)allylamino]ethyl}tricyclo[3,3,1^3, ^7]decane-1-carboxyamide]
Serotonin 1A receptor
  IC50: 0.00398 µM
Serotonin 2 receptor
  IC50: 1 µM

## Cc1cccc2c1OC(CN(CCNC(=O)C13CC4CC(CC(C4)C1)C3)Cc1ccccc1)CO2 (stereo not drawn) [Compound a, N-{[2-(8-methyl 1,4-benzodioxan-2-ylmethyl)benzylamino]ethyl}tricyclo[3,3,1,^3, ^7]decane-1-carboxyamide]
Serotonin 1A receptor
  IC50: 0.158 µM
Serotonin 2 receptor
  IC50: > 1 µM

## Cc1cc(C)c2c(c1)OCC(CNCCNC(=O)C13CC4CC(CC(C4)C1)C3)O2 (stereo not drawn) [Compound 20, N-{[2(6,8-dimethyl-1,4-benzodioxan-2ylmethyl)amino]ethyl)tricyclo[3,3,1,1^3, ^7]decane-1-carboxyamide]
Serotonin 1A receptor
  IC50: > 0.0316 µM
Serotonin 2 receptor
  IC50: 0.2 µM

## CC(C)Cc1ccc2c(c1)OC(CNCCNC(=O)C13CC4CC(CC(C4)C1)C3)CO2 (stereo not drawn) [Compound 13, N-{[2-(7-isobutyl-1,4-benzodioxan-2ylmethyl)amino]ethyl}tricyclo[3,3,1,1^3, ^7]decane-1-carboxyamide]
Serotonin 1A receptor
  IC50: 0.0631 µM
Serotonin 2 receptor
  IC50: 0.316 µM

## CCCN(CCNC(=O)C12CC3CC(CC(C3)C1)C2)CC1COc2cccc(C)c2O1 (stereo not drawn) [Compound 10]
Serotonin 1A receptor
  IC50: 0.01 µM
Serotonin 2 receptor
  IC50: 0.631 µM
